# Data: patent US5814646A, “Inhibitors of amyloid beta-protein production” (Eli Lilly and Company, priority 1995, dated 1998)
# Tested on: Aβ production in 293 751 SWE and CHO 751 SWE cells (transfected with APP-751 Swedish mutation)
# Test: Aβ production inhibition activity in cells (Aβ ELISA of conditioned media, normalized for cytotoxicity by MTT)
# Format: cell-based
# Settings: 5 μg/ml
# Experimental: Two cell lines (human kidney cell line 293 and Chinese hamster ovary cell line CHO) were stably transfected with the gene for APP-751 containing the double mutation Lys651 -Met652 to Asn651 -Leu652 (APP-751 numbering) commonly called the Swedish mutation using the method described in Citron et al., (1992) Nature 360:672-674. The transfected cell lines were designated as 293 751 SWE and CHO 751 SWE, and were plated in Corning 96 well plates at 2.5×10^4 or 1×10^4 cells per well respectively in Dulbecco's minimal essential media plus 10% fetal bovine serum. Following overnight incubation at 37° C. in an incubator equilibrated with 10% carbon dioxide (CO2), the media were removed and replaced with 200 μL per well of media containing a test compound. After a two hour pretreatment period, the media were again removed and replaced with fresh media containing the test compound and the cells were incubated for an additional two hours.
# Test compound stocks were prepared in DMSO such that at the final concentration used in the treatment, the concentration of DMSO did no exceed 0.5%. After treatment, plates were centrifuged in a Beckman GPR at 1200 rpm for five minutes at room temperature to pellet cellular debris from the conditioned media. From each well, 100 μL of conditioned media were transferred into an ELISA plate precoated with antibody 266 against βAP-13-28 (Seubert et al., supra.) and stored at 4° C. overnight. An ELISA assay employing labeled antibody 6C6 (against βAP-1-16) was run the next day to measure the amount of Aβ produced.
# Cytotoxic effects of the test compounds were measured by a modification of the method of Hansen et al., (1989) J. Immun. Meth. 119:203-210. To the cells remaining in the tissue culture plate, was added 25 μL of a 3, (4,5-dimethylthiazol-2-yl)2,5-diphenyltetrazolium bromide (MTT) stock solution (5 mg/mL) to a final concentration of […]. Cells were incubated at 37° C. for one hour, and cellular activity was stopped by the addition of an equal volume of MTT lysis buffer (20% w/v sodium dodecylsulfate in 50% DMF, pH 4.7). Complete extraction was achieved by overnight shaking at room temperature. The difference in the OD562 nm and the OD650 nm was measured in a Molecular Devices UVmax microplate reader as an indicator of the cellular viability.
# The results of the Aβ ELISA were fit to a standard curve and expressed as ng/mL Aβ peptide. In order to normalize for cytotoxicity, these Aβ results were divided by the MTT results and expressed as a percentage of the results from a drug -free control.
# The test compounds were assayed for Aβ production inhibition activity in cells at […] using the test. The results presented in Table 1 are the mean and standard deviation of at least six replicate assays. IC50 means the concentration of test compound in micromoles/liter required to inhibit Aβ production by 50%.
row,Compound,inhibition at 5 µg/mL
1,ON(Cc1ccc(OCc2ccc(F)c(F)c2)cc1)C(=S)NCc1ccccc1 [Compound 56],28%
2,CCCCCCNC(=S)N(O)Cc1ccc(OCc2cc(OC)cc(OC)c2)cc1 [Compound 61],28%
3,Cc1cccc(CNC(=S)N(O)C(C)c2cccc(NC(=O)c3ccc(C(C)(C)C)cc3)c2)c1 (stereo not drawn) [Compound 100],1%
4,Cc1cccc(CNC(=S)N(O)Cc2cccc(OCc3ccc(C(C)(C)C)cc3)c2)c1 [Compound 48],29%
5,CCCCCCNC(=S)N(O)Cc1ccc(-c2ccccc2)cc1 [Compound 78],24%
6,CCCCCCNC(=S)N(O)C(Cc1ccccc1)c1cccc(Oc2ccc(C(C)(C)C)cc2)c1 (stereo not drawn) [Compound 34],20%
7,Cc1ccc(C)c(COc2ccc(CN(O)C(=S)NCc3ccccc3)cc2)c1 [Compound 58],32%
8,CC(C)(C)c1ccc(Oc2cccc(C(Cc3ccccc3)N(O)C(=S)NCc3ccccc3)c2)cc1 (stereo not drawn) [Compound 33],16%

# Same assay, conditions: 10 μg/ml, % of drug-free control, normalized to MTT
Compound,inhibition at 10 µg/mL,"Aβ Production Inhibition Activity, % inhibition at 10 μg/ml"
Cc1nnc(NC(=O)Nc2ccccc2F)s1 [Compound 249],6%,–
CC(c1cccc(Oc2ccc(C(C)(C)C)cc2)c1)N(O)C(=S)NCc1ccc2c(c1)OCO2 (stereo not drawn) [Compound 15],28%,–
O=C(Nc1ccc(Cl)c(Cl)c1)Nc1ncccn1 [Compound 138],7%,–
COc1ccc(CNC(=S)N(O)C(C)c2cccc(Oc3ccc(C(C)(C)C)cc3)c2)cc1OC (stereo not drawn) [Compound 11],31%,–
COc1ccccc1CNC(=S)Nc1ccc(Oc2ccc(C(C)(C)C)cc2)cc1 [Compound 109],37%,–
CSc1ccc(NC(=O)Nc2ccc(Cl)cc2Cl)cc1 [Compound 159],4%,–
CCCc1c(COc2ccc(CN(O)C(=S)NCc3ccccc3)cc2)ccc(C(C)=O)c1O [Compound 67],42%,–
CCCc1cc(C(C)(C)C)ccc1Oc1ccc(NC(=S)Nc2ccc(Cl)c(C(F)(F)F)c2)cc1 [Compound 193],29%,–
CNC(=O)Nc1nnc(Br)s1 [Compound 253],2%,–
CCCCCCC(c1cccc(Oc2ccc(C(C)(C)C)cc2)c1)N(O)C(=S)Nc1ccc(Cl)c(C(F)(F)F)c1 (stereo not drawn) [Compound 35],9%,–
Cc1cc(C(=O)Nc2ccc(Cl)c(Cl)c2)no1 [Compound 242],–,29%
Cc1nnc(NC(=O)Nc2c(C)cccc2C)s1 [Compound 251],-13%,–
CCCCCCNC(=S)N(O)Cc1cccc(S(=O)(=O)c2ccc(C(C)(C)C)cc2)c1 [Compound 93],–,13%
CC(c1cccc(Oc2ccc(C(C)(C)C)cc2)c1)N(C(=S)NCc1ccccc1)N(C)C (stereo not drawn) [Compound 38],32%,–

# Same assay, conditions: 2 h pretreatment + 2 h incubation
row,Compound,IC50
1,CC(C)(C)c1ccccc1Oc1ccc(NC(=S)NCc2ccccc2)cc1 [Compound 188],9.4 µM
2,CCCc1c(CSC(=S)NCc2ccccc2)ccc(C(C)=O)c1O [Compound 199],2 µM
3,CCC(c1cccc(Oc2ccc(C(C)(C)C)cc2)c1)N(O)C(=S)Nc1ccc(Cl)c(C(F)(F)F)c1 (stereo not drawn) [Compound 23],11 µM
4,CC(C)(C)c1ccc(Oc2ccc(NC(=S)NCCCc3ccccc3)cc2)cc1 [Compound 117],17 µM
5,CC(C)(C)c1ccc(Oc2ccc(NC(=S)NCc3ccc(F)cc3)cc2)cc1 [Compound 113],5.6 µM
6,CCCc1cc(C(C)(C)C)ccc1Oc1cccc(CN(O)C(=O)Nc2ccc(Cl)c(C(F)(F)F)c2)c1 [Compound 103],20 µM
7,CSc1ccc(NC(=O)Nc2cccc(Cl)c2)cc1Br [Compound 162],5.7 µM
8,"CC(C)(C)c1nnc(NC(=O)Nc2ccc(Cl)c(Cl)c2)s1 [Compound 237, 1-(5-t-butyl-1,3,4-thiadiazol-2-yl)-3-(3,4-dichlorophenyl)urea]",2.9 µM
9,CC(C)(C)c1ccc(Oc2ccc(NC(=S)NCc3ccc(F)cc3F)cc2)cc1 [Compound 128],7.3 µM
10,CCC(C)(C)c1ccc(OCc2ccc(CN(O)C(=S)NCc3ccccc3)cc2)cc1 [Compound 97],10 µM
11,CC(C)(C)c1ccc(Oc2ccc(NC(=S)Nc3cccc(C(F)(F)F)c3)cc2)cc1 [Compound 175],7.3 µM
12,CC(C)(C)c1ccc(Oc2ccc(NC(=S)NCc3ccccn3)cc2)cc1 [Compound 120],15.6 µM
13,CC(C)(C)c1ccc(COc2cccc(CN(O)C(=S)NCc3ccccc3)c2)cc1 [Compound 49],6.7 µM
14,CC(C)(C)c1ccc(Sc2cccc(CN(O)C(=S)NCc3ccccc3)c2)cc1 [Compound 86],5.9 µM
15,CCCCCCNC(=S)Nc1ccc(Oc2ccc(C(C)(C)C)cc2)cc1 [Compound 135],10.6 µM
16,CC(C)(C)c1ccc(Oc2cccc(CNC(=S)NCc3ccccc3)c2)cc1 [Compound 40],9.1 µM
17,CC(C)(C)c1ccc([S+]([O-])c2cccc(CN(O)C(=S)NCc3ccccc3)c2)cc1 (stereo not drawn) [Compound 91],17.1 µM
18,CC(C)(C)c1cccc(Oc2cccc(N(O)C(=S)Nc3ccc(Cl)c(C(F)(F)F)c3)c2)c1 [Compound 173],2.8 µM
19,COc1ccc(CNC(=S)N(O)C(C)c2cccc(Oc3ccc(C(C)(C)C)cc3)c2)cc1 (stereo not drawn) [Compound 10],> 20 µM
20,CC(C)(C)c1ccc(SCc2ccc(CN(O)C(=S)Nc3ccc(Cl)c(C(F)(F)F)c3)cc2)cc1 [Compound 95],4.6 µM
21,"O=C(Nc1ccc(Cl)c(Cl)c1)Nc1nnc(Cl)s1 [Compound 232, 1-(5-chloro-1,3,4-thiadiazol-2-yl)-3-(3,4-dichlorophenyl)urea]",2 µM
22,O=C(Nc1ccc(Cl)c(Cl)c1)Nc1cccc2ncccc12 [Compound 136],17.8 µM

row,Compound,IC50
1,CC(C)(C)c1ccc(Oc2ccc(NC(=S)NCCc3ccccc3)cc2)cc1 [Compound 116],19.8 µM
2,CC(C)(C)c1ccc(Oc2ccc(NC(=S)Nc3ccccc3)cc2)cc1 [Compound 114],18.2 µM
3,COc1c(C(C)(C)C)cc(COc2cccc(CN(O)C(=S)NCc3ccccc3)c2)cc1C(C)(C)C [Compound 72],8.1 µM
4,CC(C)(C)c1cc(C(=O)Nc2ccc(Cl)c(Cl)c2)on1 [Compound 245],9.8 µM
5,CCCCCCNC(=S)N(O)Cc1cccc(Oc2ccc(C(C)(C)C)cc2CCC)c1 [Compound 102],6.1 µM
6,CC(C)(C)c1ccc(Oc2cccc(CN(O)C(=S)NCc3ccccc3)c2)cc1 [Compound 26],3.4 µM
7,CSc1cc(Cl)c(NC(=O)Nc2cccc(Cl)c2)cc1Cl [Compound 163],10.5 µM
8,S=C(Nc1ccc(Oc2ccccc2)cc1)Nc1ccc(Cl)c(Cl)c1 [Compound 148],7.5 µM
9,CC(C)(C)c1cccc(Oc2ccc(NC(=S)Nc3ccc(Cl)c(C(F)(F)F)c3)cc2)c1 [Compound 169],4.6 µM
10,CC(C)(C)c1ccc(Oc2cccc(CNC(=S)NCc3ccc(Cl)c(C(F)(F)F)c3)c2)cc1 [Compound 41],4 µM
11,O=C(Nc1ccc(Cl)c(Cl)c1)Nc1nc2ccccc2s1 [Compound 137],10.3 µM
12,CCC(c1cccc(Oc2ccc(C(C)(C)C)cc2)c1)N(O)C(=S)NCc1cccc(OC)c1 (stereo not drawn) [Compound 21],5.6 µM
13,CC(C)(C)c1ccc(Oc2ccc(NC(=S)NCc3cccc(F)c3)cc2)cc1 [Compound 112],7.6 µM
14,S=C(NCc1ccccc1)Nc1ccc(Cl)c(Cl)c1 [Compound 146],21.8 µM
15,"Cc1nnc(NC(=O)Nc2ccc(F)c(Cl)c2)s1 [Compound 250, 1-(5-methyl-1,3,4-thiadiazol-2-yl)-3-(4-fluoro-3-chlorophenyl)urea]",9.8 µM
16,CC(C)(C)c1ccc(Oc2cccc(NC(=S)Nc3ccc(Cl)cc3)c2)cc1 [Compound 192],8.8 µM
17,CC(C)(C)c1ccc(Oc2ccc(CSC(=S)NCc3ccccc3)cc2)cc1 [Compound 198],10 µM
18,CCCc1c(NC(=S)Nc2cccc(C(F)(F)F)c2)ccc(C(=O)c2ccccc2)c1O [Compound 201],20 µM
19,CCCCCCNC(=S)N(O)Cc1cccc(Sc2ccc(C(C)(C)C)cc2)c1 [Compound 87],9.9 µM
20,CCCc1cc(C(C)(C)C)ccc1Oc1cccc(CN(O)C(=S)NCc2ccccc2)c1 [Compound 101],4.5 µM
21,CC(C)(C)c1ccc(Oc2ccc(NC(=S)NCc3ccc(F)cc3C(F)(F)F)cc2)cc1 [Compound 132],8 µM
22,CCCCCCNC(=S)N(O)Cc1cccc(Oc2ccc(C(C)(C)C)cc2)c1 [Compound 27],9.4 µM
